This is an account of results in patent publication US8178528B2, “Histamine H3 receptor agents, preparation and therapeutic uses” (Eli Lilly and Company, priority 2005, dated 2012).

The target in this test is T1, H3R membranes (H3R8-expressing HEK293 cell line) (Homo sapiens, UniProt Q9Y5N1).
T1 construct: expressed in transfected cells; membranes
As to the kind of experiment: [35S] GTP gamma [S] binding assay. The format is biochemical. Particulars: agonist R(-)alpha methylhistamine. As for the experimental part:
Membranes isolated as described in (Preparation of Histamine Receptor Subtype Membranes) are used in a [35S]GTPχS functional assay. Binding of [35S]GTPχS to membranes indicates agonist activity. Compounds of the invention of Formula I or Formula II are tested for their ability to inhibit binding in the presence of agonists. Alternately, the same transfected cell lines are used for a cAMP assay wherein H3R agonists inhibit forskolin-activated synthesis of cAMP. Compounds of Formula I or Formula II are tested for their ability to permit forskolin-stimulated cAMP synthesis in the presence of agonist.
cDNA for the human histamine 3 receptor is cloned and expressed as described in (A. Preparation H1R membranes), above. Transfected cells are selected using G418 ([…]), grown, and tested for histamine binding by the SPA described above. For total binding, cells are assayed in a SPA reaction described above containing 50 mM Tris-HCL (assay buffer), pH 7.6, 1 mg wheat germ agglutinin SPA beads (Amersham Pharmacia Biotech, #RPNQ0001), and 1 nM (3H)-n-alpha-methylhistamine (NEN, NET1027) (total volume per well=200 μl). Thioperimide is added to determine non-specific binding. […]
Antagonist activity of selected compounds is tested for inhibition of [35S] […] Plates are counted in Wallac Trilux 1450 Microbeta scintillation counter for 1 minute. […]
Background: GTPγS resists hydrolysis and so accumulates on activated G proteins.

For orientation: Ki means a measure of affinity in units of concentration, obtained from inhibition or displacement.

T1 sequence (Q9Y5N1 whole entry): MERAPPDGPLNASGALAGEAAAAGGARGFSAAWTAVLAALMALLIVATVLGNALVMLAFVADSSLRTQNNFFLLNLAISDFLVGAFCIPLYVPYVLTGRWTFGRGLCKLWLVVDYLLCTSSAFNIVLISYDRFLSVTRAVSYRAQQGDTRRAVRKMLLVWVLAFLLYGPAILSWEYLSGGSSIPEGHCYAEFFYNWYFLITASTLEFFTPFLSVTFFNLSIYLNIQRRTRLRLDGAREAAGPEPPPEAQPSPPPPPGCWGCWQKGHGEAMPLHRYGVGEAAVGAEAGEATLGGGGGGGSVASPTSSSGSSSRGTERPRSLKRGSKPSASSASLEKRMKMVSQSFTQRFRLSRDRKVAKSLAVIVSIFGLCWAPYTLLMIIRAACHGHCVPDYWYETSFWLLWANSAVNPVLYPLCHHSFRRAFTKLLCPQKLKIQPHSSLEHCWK

`O=C(c1ccc(S(=O)(=O)c2ccccc2)cc1)N1CCC[C@H]1CN1CCCC1`: the Ki came to 12 nM.

`O=C(c1ccc(C2CCCCC2)cc1)N1CCC[C@H]1CN1CCCC1`: the Ki was found to be 47 nM.
